In ChEMBL document CHEMBL5465560, “Selectivity Literature for EUbOPEN Chemogenomic Library” (2024):

Tests used:
[1] = target: Insulin receptor-related protein (Homo sapiens) (UniProt P14616); assay: Selectivity interaction (Kinase screening (Nanosyn)) EUB0000604a INSRR
[2] = target: Kappa-type opioid receptor (Homo sapiens, UniProt P41145); assay: Selectivity interaction (Panel of kinases, GPCRs, ion channels and transporters (enzymatic assay)) EUB0000266bCl OPRK1
[3] = target: Cyclin-dependent kinase 4/cyclin D1 (Homo sapiens) (UniProt P11802+P24385); assay: (§1) Selectivity interaction (Ambit KINOMEscan and KiNATiv profiling in Jurkat cells) EUB0000090b CDK4; assay type: cell-based; settings: at 1 µM
[4] = target: CDK4/Cyclin D3 (Homo sapiens) (UniProt P11802+P30281); assay: as §1; assay type: cell-based; settings: at 1 µM
[5] = target: T1, Protein arginine N-methyltransferase 9 (Homo sapiens, UniProt Q6P2P2); assay: Selectivity interaction (Scintillation proximity assays) EUB0000230b PRMT9
T1 sequence (Q6P2P2 whole entry): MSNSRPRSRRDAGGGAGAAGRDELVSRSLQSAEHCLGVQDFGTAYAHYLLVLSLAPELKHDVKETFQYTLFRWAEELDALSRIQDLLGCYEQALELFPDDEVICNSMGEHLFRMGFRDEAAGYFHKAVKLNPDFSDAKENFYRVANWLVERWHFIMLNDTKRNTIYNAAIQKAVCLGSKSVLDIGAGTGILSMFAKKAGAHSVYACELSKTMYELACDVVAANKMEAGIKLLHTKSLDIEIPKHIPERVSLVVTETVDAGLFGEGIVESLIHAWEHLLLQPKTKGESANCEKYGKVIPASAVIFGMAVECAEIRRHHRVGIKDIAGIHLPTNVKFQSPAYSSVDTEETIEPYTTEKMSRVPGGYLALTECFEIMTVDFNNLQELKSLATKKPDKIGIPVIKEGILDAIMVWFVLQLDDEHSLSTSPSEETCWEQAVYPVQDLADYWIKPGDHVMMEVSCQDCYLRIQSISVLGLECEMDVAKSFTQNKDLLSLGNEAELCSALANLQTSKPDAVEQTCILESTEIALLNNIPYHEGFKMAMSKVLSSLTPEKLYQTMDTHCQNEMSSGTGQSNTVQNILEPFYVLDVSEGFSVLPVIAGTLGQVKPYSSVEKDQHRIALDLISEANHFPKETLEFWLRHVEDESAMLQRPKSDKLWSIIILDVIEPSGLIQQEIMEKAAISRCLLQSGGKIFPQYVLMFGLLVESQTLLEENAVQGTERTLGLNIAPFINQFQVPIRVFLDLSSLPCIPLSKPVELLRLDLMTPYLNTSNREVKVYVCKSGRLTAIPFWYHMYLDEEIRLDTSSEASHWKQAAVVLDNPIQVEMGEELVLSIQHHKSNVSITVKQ

[6] = target: Mitogen-activated protein kinase 4 (Homo sapiens) (UniProt P31152); assay: Selectivity interaction (KinomeScan (DiscoverX)) EUB0001079a MAPK4; settings: at 1 µM
[7] = target: Serine/threonine-protein kinase Nek4 (Homo sapiens) (UniProt P51957); assay: Selectivity interaction (KinomeScan (DiscoverX)) EUB0001079a NEK4; settings: at 1 µM
[8] = target: Vascular endothelial growth factor receptor 1 (Homo sapiens) (UniProt P17948); assay: Selectivity interaction (ProQinase) EUB0000171b FLT1
Vascular endothelial growth factor receptor 1 (Homo sapiens), sequence (P17948 whole entry): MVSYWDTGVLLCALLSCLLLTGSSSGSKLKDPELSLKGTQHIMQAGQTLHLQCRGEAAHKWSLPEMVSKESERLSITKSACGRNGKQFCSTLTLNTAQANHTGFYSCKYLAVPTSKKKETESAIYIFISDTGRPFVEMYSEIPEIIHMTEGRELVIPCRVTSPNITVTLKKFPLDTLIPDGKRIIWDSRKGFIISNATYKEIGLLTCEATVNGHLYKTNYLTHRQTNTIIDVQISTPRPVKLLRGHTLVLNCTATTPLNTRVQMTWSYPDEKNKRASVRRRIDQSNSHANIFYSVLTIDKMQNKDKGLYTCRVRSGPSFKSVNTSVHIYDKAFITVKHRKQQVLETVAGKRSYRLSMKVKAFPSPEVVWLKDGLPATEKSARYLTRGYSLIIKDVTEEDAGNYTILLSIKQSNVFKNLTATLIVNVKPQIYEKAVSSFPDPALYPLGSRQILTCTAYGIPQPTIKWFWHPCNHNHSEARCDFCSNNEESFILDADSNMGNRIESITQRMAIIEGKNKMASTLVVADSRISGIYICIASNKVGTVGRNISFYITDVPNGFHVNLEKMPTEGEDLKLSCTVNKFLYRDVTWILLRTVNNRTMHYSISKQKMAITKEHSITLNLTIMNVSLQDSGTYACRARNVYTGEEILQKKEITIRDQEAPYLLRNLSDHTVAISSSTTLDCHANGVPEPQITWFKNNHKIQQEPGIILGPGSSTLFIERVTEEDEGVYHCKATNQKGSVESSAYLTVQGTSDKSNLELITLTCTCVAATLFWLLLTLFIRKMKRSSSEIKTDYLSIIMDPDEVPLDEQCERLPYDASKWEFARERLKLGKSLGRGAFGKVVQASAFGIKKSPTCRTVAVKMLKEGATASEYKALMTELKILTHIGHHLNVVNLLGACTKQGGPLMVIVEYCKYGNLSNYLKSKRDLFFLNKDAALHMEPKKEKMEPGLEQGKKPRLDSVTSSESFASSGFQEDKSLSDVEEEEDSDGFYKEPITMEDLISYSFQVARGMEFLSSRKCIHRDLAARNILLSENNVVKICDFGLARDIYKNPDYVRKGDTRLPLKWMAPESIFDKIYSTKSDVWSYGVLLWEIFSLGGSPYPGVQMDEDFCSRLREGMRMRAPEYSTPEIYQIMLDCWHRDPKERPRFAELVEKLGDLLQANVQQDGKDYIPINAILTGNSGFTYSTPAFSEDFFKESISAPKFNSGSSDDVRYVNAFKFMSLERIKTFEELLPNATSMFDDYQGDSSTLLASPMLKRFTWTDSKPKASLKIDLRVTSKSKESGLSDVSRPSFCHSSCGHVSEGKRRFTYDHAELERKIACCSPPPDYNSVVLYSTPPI

[9] = target: Fibroblast growth factor receptor 3 (Homo sapiens, UniProt P22607); assay: (§2) Selectivity interaction (KinomeScan (DiscoverX)) EUB0001619a FGFR3; settings: at 1 µM
Fibroblast growth factor receptor 3, sequence (P22607 23-806 limits assumed): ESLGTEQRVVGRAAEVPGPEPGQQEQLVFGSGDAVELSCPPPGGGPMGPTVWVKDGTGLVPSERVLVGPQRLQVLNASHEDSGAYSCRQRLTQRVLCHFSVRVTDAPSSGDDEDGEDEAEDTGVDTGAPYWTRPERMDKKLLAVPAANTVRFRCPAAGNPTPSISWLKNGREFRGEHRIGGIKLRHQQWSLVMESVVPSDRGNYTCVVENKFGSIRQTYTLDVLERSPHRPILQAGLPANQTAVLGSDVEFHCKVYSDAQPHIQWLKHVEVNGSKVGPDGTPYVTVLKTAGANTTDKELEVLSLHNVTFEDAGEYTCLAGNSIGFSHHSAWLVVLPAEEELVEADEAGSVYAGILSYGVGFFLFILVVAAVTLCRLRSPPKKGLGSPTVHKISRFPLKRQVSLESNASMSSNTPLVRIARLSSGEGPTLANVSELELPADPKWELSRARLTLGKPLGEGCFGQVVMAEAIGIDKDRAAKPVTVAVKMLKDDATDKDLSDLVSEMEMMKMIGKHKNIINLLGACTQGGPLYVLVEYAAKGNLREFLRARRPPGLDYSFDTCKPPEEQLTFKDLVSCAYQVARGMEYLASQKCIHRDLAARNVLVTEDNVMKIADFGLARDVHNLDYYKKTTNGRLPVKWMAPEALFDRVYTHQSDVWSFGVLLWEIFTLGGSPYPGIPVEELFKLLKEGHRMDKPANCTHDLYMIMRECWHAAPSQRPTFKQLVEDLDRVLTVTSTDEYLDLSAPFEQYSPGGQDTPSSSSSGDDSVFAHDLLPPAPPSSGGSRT

[10] = system: Fibroblast growth factor receptor 3 (Homo sapiens), P22607 [G697C]; assay: as §2; settings: at 1 µM
[11] = target: Serine/threonine-protein kinase WNK4 (Homo sapiens) (UniProt Q96J92); assay: Selectivity interaction (ActivX KiNativ screen (ex vivo kinase selectivity in human PBMCs)) EUB0001619a WNK4; assay type: cell-based; settings: PBMC, at 1 µM
Serine/threonine-protein kinase WNK4 (Homo sapiens), sequence (Q96J92 whole entry): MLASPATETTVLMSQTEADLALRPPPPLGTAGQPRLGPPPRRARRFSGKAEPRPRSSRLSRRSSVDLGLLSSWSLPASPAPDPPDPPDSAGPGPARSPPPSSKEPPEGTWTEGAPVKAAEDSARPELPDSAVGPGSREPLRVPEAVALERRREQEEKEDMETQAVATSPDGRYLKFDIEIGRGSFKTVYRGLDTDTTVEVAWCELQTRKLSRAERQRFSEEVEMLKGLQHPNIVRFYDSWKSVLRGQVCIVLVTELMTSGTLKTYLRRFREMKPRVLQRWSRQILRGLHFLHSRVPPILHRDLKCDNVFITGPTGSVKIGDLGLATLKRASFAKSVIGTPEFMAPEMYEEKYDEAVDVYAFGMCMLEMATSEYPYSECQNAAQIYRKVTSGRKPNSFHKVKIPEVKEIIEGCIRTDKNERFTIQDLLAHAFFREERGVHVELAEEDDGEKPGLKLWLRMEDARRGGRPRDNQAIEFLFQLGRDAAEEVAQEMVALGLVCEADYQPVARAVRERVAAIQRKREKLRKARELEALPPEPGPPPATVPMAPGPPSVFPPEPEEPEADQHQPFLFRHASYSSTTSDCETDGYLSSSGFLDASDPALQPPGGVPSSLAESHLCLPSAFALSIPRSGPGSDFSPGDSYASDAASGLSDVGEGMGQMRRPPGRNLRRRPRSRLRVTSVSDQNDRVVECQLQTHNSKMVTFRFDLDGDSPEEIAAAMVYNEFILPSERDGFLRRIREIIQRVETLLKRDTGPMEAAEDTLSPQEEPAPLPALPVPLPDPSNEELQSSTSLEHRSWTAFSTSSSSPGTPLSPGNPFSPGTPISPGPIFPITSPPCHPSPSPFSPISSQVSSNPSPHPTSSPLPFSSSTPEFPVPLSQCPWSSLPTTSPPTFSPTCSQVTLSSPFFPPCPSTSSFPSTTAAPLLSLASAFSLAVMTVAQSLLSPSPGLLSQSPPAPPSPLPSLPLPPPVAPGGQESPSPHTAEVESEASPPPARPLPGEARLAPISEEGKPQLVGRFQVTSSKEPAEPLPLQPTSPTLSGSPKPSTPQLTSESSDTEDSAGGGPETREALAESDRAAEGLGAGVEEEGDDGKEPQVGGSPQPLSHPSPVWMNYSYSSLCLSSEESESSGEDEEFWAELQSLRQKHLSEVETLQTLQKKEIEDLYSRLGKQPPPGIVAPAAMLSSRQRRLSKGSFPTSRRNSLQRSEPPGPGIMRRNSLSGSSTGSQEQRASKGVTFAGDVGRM

[12] = system: Proto-oncogene tyrosine-protein kinase receptor Ret (Homo sapiens), P07949 [V804M]; assay: (§3) Selectivity interaction (KinomeScan (DiscoverX)) EUB0000607a RET; settings: at 10 µM
[13] = system: Proto-oncogene tyrosine-protein kinase receptor Ret (Homo sapiens), P07949 [M918T]; assay: as §3; settings: at 10 µM
[14] = target: Proto-oncogene tyrosine-protein kinase receptor Ret (Homo sapiens, UniProt P07949); assay: as §3; settings: at 10 µM
[15] = target: T2, Phosphorylase b kinase gamma catalytic chain, liver/testis isoform (Homo sapiens) (UniProt P15735); assay: Selectivity interaction (KinomeScan (DiscoverX)) EUB0000607a PHKG2; settings: at 10 µM
T2 sequence (whole entry): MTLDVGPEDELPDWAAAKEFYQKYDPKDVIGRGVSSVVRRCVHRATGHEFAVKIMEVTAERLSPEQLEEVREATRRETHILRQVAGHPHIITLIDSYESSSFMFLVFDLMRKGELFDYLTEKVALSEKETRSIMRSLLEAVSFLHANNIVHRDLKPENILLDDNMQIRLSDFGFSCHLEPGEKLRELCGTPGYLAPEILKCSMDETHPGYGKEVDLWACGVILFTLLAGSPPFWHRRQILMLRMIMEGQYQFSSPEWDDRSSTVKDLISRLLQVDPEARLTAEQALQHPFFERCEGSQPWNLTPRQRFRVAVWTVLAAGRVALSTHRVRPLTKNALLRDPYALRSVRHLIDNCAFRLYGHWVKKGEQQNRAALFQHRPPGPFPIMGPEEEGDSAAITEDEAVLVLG

[16] = system: Hepatocyte growth factor receptor (Homo sapiens), P08581 [M1250T]; assay: (§4) Selectivity interaction (KinomeScan (DiscoverX)) EUB0000607a MET; settings: at 10 µM
[17] = target: Hepatocyte growth factor receptor (Homo sapiens, UniProt P08581); assay: as §4; settings: at 10 µM
[18] = system: Hepatocyte growth factor receptor (Homo sapiens), P08581 [Y1235D]; assay: as §4; settings: at 10 µM
[19] = target: Ribosomal protein S6 kinase alpha-1 (Homo sapiens, UniProt Q15418); assay: Selectivity interaction (Kinase panel (DSF assay)) EUB0001558a RPS6KA1

Insulin receptor-related protein (Homo sapiens), sequence (P14616 27-742 limits assumed): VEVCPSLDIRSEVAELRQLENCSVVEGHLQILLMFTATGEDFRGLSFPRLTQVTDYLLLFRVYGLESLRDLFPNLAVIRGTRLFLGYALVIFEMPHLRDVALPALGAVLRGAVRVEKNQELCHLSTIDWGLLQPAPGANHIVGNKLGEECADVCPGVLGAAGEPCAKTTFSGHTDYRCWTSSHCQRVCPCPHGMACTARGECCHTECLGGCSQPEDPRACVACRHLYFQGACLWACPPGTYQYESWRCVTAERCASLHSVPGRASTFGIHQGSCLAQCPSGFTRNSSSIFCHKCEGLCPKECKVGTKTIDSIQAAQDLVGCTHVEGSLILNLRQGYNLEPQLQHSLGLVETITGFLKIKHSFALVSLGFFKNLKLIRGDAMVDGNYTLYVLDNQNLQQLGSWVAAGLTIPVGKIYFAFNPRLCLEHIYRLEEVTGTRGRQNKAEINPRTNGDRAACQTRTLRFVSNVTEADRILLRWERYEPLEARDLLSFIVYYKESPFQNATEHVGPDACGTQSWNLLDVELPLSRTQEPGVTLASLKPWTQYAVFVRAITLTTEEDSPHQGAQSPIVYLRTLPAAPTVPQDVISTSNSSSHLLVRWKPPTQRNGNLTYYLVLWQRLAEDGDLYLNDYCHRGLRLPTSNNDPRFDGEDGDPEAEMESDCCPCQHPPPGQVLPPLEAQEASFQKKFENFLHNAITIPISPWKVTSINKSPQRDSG
Insulin receptor-related protein (Homo sapiens), sequence (P14616 747-1297 limits assumed): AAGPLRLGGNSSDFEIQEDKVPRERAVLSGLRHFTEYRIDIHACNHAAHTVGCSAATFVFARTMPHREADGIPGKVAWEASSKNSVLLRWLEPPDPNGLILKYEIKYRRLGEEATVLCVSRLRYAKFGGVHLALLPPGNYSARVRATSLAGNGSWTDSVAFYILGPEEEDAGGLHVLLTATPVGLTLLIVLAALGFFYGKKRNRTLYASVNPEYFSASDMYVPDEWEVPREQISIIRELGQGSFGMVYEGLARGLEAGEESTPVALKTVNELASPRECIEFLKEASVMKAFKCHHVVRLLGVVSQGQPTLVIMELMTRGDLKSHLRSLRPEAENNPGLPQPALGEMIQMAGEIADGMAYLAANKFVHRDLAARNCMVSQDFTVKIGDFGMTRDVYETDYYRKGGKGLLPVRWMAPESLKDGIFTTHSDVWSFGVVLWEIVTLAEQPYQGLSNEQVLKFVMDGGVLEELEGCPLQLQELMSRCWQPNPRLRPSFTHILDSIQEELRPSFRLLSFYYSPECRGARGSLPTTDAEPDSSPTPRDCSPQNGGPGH
Kappa-type opioid receptor, sequence (P41145 whole entry): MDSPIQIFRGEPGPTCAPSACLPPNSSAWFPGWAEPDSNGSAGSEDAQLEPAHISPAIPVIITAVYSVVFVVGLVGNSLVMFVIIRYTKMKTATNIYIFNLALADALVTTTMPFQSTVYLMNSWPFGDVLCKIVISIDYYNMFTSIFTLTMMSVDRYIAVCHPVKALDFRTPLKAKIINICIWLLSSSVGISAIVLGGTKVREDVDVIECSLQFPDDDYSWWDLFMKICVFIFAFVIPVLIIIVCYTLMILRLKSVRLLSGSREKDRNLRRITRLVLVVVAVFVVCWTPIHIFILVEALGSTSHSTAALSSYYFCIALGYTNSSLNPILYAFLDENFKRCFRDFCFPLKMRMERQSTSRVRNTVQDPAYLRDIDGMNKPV

## Cc1cnc(Nc2ccc(F)cc2Cl)nc1-c1c[nH]c(C(=O)N[C@H](CO)c2cccc(Cl)c2)c1
[1]
  % of inhibition: 0%

## CCn1c(-c2nc3cc(C(=O)N4CCCC(N)C4)ccc3n2C)cc2ccccc21 (stereo not given)
[2]
  pXC50: < 4 M

## CN(C)C/C=C/C(=O)Nc1ccc(C(=O)N2CCCC(Nc3ncc(Cl)c(-c4c[nH]c5ccccc45)n3)C2)cc1 (stereo not given)
[3]
  % of control: 59%
[4]
  % of control: 94%

## CNCCN1CCC(c2cc(CN(C)C(=O)c3cccc(Oc4ccccc4)c3)ccn2)CC1
[5]
  IC50: > 10 µM

## Nc1cnc(N2CCc3cc(S(=O)(=O)Nc4c(F)cc(Cl)cc4F)cc(N4CCCC4=O)c32)nc1 [TP-020n]
[6]
  % of control: 100%
[7]
  % of control: 97%

## C=CC(=O)Nc1cccc(C(=O)Nc2ccc(Nc3cc(-c4[nH]c(SC)nc4C)ccn3)cc2)c1
[8]; at 1 µM
  % of control: 84%
[8]; at 5 µM
  % of control: 66%

## N#Cc1cccc(-c2c[nH]c3ncnc(N4CCOCC4)c23)c1
[9]
  % of control: 100%
[10]
  % of control: 100%
[11]
  % of inhibition: -1%

## CNC(=O)Nc1ccc(-c2nc(N3CC4CCC(C3)O4)c3cnn(C4CCC5(CC4)OCCO5)c3n2)cc1
[12]
  % of control: 100%
[13]
  % of control: 73%
[14]
  % of control: 91%
[15]
  % of control: 96%
[16]
  % of control: 87%
[17]
  % of control: 93%
[18]
  % of control: 24%

## CC(C)(O)[C@H](F)CN1Cc2cc(NC(=O)c3cnn4cccnc34)c(N3CCOCC3)cc2C1=O
[19]
  dTM: -0.2 K
